According to article PMC10076467 (EJNMMI Research, 2023):
Several values for one entry are separate records, joined by “and”; a condition that tells them apart may be missing. Equal values may be shown once. Read-outs that look alike come from different tables or passages of the source. Blank lines part the entries; values can stand above or below the compound they belong to.

What was measured:
GluN2B receptors [1] = biological target: T1, GluN2B receptors (Rattus norvegicus, UniProt P35439+Q00960); experiment: PET displacement / pre-blocking of ^11C-NR2B-Me radioligands with Ro-25-6981, Lassen plots; format: in vivo; conditions: rat; Ro-25-6981 0.25 mg/kg i.v. 10 min before radioligand
T1 construct: from tissue; host or cells: brain of living male rats (PET imaging)
T1 sequence (Q00960 27-1482, other chains not shown): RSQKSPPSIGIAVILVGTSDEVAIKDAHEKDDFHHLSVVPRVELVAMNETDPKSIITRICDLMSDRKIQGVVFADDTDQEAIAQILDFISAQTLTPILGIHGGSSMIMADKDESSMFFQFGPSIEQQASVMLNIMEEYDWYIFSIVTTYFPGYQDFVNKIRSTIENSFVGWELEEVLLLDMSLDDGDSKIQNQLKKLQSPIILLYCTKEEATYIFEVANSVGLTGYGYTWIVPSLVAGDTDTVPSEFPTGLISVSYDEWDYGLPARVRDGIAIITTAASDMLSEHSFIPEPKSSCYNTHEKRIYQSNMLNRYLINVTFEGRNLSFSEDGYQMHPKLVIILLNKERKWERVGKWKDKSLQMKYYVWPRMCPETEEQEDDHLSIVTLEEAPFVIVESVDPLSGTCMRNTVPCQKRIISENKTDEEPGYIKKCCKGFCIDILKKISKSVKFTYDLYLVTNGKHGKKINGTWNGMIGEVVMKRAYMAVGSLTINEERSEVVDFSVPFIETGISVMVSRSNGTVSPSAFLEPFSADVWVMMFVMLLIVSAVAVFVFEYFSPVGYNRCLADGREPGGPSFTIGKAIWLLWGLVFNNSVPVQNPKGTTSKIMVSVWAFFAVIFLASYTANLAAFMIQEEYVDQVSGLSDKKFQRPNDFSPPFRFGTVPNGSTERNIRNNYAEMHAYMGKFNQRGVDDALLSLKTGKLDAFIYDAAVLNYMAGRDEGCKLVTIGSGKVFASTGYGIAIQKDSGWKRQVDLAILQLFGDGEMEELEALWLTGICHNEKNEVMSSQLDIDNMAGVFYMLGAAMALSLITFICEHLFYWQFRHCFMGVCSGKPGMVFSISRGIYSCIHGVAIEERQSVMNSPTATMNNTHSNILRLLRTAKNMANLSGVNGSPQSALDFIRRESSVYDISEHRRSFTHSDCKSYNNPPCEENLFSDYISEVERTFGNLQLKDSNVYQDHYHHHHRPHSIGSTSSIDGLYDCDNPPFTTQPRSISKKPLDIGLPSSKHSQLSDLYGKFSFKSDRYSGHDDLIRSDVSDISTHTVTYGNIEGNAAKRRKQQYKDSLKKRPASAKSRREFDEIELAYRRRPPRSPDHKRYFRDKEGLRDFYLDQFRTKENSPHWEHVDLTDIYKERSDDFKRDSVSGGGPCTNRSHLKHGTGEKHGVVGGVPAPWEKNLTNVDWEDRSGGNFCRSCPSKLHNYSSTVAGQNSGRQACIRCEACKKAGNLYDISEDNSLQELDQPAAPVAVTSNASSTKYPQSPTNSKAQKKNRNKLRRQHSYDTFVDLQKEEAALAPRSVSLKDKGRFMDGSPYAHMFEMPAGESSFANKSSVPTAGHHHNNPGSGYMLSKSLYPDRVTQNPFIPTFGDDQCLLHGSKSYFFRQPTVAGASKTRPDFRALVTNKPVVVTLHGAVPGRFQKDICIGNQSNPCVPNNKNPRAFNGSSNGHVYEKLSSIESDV
Protocol: For radioligand injection, a polyethylene catheter (PE 10) was inserted into the penile vein of a male rat and then secured with tissue adhesive and tape. […] Body temperature was monitored with a rectal probe. All PET scans were performed on a microPET Focus 220 scanner (Siemens Medical Solutions) (7,8). Data were acquired in listmode and reconstructed with Fourier rebinning + 2D filtered backprojection. A transmission scan was acquired before radioligand injection for attenuation correction. Dynamic scanning began at the time of a one-minute intravenous bolus injection of the radioligand under study (55 ± 19 MBq; volume 0.2 to 1.0 mL). The injected mass dose was 3 ± 1 nmol/kg. Challenge agents were administered intravenously 10 minutes before the radioligand for pre-blocking studies or 10 minutes after the radioligand for displacement studies. Tomographic images were analyzed with pixel-wise modeling computer software (PMOD 2.6; PMOD Group). Regions-of-interest in the brain were delineated, and time-activity curves calculated as SUV versus time.
Pre-blocking and displacement experiments were performed to assess radioligand target engagement and radioligand selectivity in vivo. […] Areas-under the curve (AUCs) from time-activity curves between 20 and 90 minutes were calculated for each radioligand. AUCs obtained from the same production of radioligand were scaled to the value (or mean value) for the baseline experiment to give relative values (relative AUC20–90 min). […] Where data permitted, the dose-response curves were fitted with GraphPad Prism software (version 8.1.1; GraphPad) to estimate the ED50 values. A dummy value of 100 pmol per kg body weight was used for zero concentration of the challenge agent in the construction of these dose-response curves. Numerical data are expressed as mean ± S.D. for n>2, or as mean and range for n = 2.

[2] = pKa measurement (cyclohexane / sodium phosphate buffers); format: physicochemical; conditions: distribution between cyclohexane and sodium phosphate buffers
[3] = room temperature, at least 30 min
Description: Subsequent processing and analysis were as described for rat ex vivo experiments in the main text.

[4] = Radiochemical stability of formulated radioligand; format: physicochemical
Description: However, the fraction collected from HPLC contains 0.1% TFA. […] Protection with ascorbic acid was therefore used immediately after HPLC radioligand purification to maintain weakly acidic and reducing conditions.

[5] = LogD7.4 measurement (1-octanol / sodium phosphate buffer); format: physicochemical
Protocol: The radiochemical purity of the radioligand was measured via HPLC. […] Aliquots (1 mL) were distributed to each of eight borosilicate disposable culture tubes (13 × 100 mm). Six tubes were extracted with buffer pre-treated 1-octanol (1 mL) by vortexing for one minute and then centrifuged for one minute. The organic and aqueous phases were separated. Samples of organic phase (50 µL) and aqueous phase (50 µL) were taken and separately measured for radioactivity. The remaining two tubes containing radioactivity in buffer were analyzed with HPLC to check for any decrease in radiochemical purity over the time-span of the experiment. […] LogD was calculated as log[(cpm/mL for 1-octanol phase)/(cpm/mL for aqueous phase)] using Pallas for Windows software (CompuDrug Inc.).

[6] = Protocol: For Brain. The brain (1.7 g) was homogenized in twice its volume of cold saline. […] An aliquot (450 µL) was then placed in acetonitrile (720 µL) along with carrier NR2B-Me (5 µg) and mixed well. Water (100 µL) was then added, mixed well, measured for radioactivity, and centrifuged at 10,000 g for one minute. The supernatant was analyzed via HPLC. The precipitate was measured for radioactivity to determine the recovery of radioactivity into the supernatant that had been injected onto HPLC.
For Whole Blood. […] The sample was mixed well and incubated at 37 °C for one hour. Water (300 µL) was added to lyse open all cells. An aliquot (450 µL) was then removed to a new vial, and acetonitrile (720 µL) was added. The mixture was mixed well, measured for radioactivity, and centrifuged at 10,000 g for one minute. The supernatant was analyzed via HPLC as described for brain.
For Plasma. Plasma was separated from blood cells. […] The mixture was measured for radioactivity. An aliquot (450 µL) was then placed in acetonitrile (720 µL) along with carrier NR2B-Me (5 µg) and mixed well. Water (100 µL) was then added, mixed well, measured for radioactivity, and centrifuged at 10,000 g for one minute. The supernatant was analyzed with HPLC as described for brain. The precipitate was measured for radioactivity to determine radioactivity recovery into the supernatant that had been injected onto HPLC.
(§1) The SUV due to radioligand or radiometabolite only was calculated by multiplying the total SUV of the tissue by the fraction of the radioligand or radiometabolite measured with HPLC (Supplementary Table S4).

[7] = remark: listed apart in the source
Protocol: Rats were anesthetized with 1.5% isoflurane in oxygen. […] The rats were then immediately sacrificed by decapitation, and their brains and myocardial tissues were excised.
Plasma was separated from blood cells, and a sample (50 µL) was measured for radioactivity. An aliquot (450 µL) was placed in acetonitrile (720 µL) along with carrier NR2B-Me (5 µg) and mixed well. Water (100 µL) was added, mixed well, measured for radioactivity, and centrifuged at 10,000 g for one minute. The supernatant was analyzed with radio-HPLC and the precipitate measured for radioactivity, as described for brain.
as §1

[8] = n = 3
Protocol: Human Plasma Free Fraction. Plasma free fraction (fp) was measured as described previously (6). […] If necessary, samples were left to decay to within the optimal radioactivity range for accurate γ-counter measurement.

σ2 receptor = conditions: at 10 µmol; cited from earlier work
[9] = cited from earlier work
GluN2B = biological target: T2, GluN2B (Homo sapiens, UniProt Q05586+Q13224); design: method as in PMID 31924728; conditions: cited from earlier work
T2 construct: expressed in transfected cells; host or cells: transiently transfected mouse fibroblast cells (membrane homogenate)
T2 sequence (Q13224 27-1484, species assumed, other chains not shown): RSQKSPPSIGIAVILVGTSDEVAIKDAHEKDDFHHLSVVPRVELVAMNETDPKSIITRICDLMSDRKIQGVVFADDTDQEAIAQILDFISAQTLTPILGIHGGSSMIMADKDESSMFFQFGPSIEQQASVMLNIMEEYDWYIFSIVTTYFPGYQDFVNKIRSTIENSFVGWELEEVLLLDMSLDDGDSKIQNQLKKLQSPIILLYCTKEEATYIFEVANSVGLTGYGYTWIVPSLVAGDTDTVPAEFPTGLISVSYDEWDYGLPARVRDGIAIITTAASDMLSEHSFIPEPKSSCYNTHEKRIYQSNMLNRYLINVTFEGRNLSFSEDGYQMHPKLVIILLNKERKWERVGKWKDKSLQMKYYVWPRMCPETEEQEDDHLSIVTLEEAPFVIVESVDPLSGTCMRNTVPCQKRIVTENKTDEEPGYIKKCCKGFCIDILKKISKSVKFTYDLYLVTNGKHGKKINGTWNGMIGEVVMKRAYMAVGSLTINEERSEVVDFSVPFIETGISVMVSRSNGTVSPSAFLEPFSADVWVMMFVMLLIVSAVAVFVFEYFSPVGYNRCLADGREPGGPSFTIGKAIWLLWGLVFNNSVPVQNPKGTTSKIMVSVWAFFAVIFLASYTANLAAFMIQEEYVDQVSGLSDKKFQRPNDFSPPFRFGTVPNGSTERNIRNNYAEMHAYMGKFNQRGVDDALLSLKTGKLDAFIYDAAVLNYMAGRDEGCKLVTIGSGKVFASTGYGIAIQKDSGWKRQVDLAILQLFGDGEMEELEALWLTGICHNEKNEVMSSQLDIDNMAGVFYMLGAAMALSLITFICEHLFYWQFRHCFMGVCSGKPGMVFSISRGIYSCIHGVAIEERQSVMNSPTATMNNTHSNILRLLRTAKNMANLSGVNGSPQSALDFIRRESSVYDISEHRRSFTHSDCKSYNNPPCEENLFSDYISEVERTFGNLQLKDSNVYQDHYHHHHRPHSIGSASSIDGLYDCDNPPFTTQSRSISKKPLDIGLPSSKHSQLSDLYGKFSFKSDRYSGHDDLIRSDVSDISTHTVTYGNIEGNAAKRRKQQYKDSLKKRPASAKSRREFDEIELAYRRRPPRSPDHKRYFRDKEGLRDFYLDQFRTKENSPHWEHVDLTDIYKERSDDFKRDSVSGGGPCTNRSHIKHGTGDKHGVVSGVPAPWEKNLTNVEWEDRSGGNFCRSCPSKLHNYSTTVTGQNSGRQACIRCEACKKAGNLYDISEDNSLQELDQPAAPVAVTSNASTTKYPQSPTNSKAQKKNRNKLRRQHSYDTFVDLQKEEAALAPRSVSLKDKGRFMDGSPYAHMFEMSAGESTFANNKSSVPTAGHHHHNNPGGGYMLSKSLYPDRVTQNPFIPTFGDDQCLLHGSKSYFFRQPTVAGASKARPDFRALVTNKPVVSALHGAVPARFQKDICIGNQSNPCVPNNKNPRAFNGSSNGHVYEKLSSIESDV

[10] = cited from earlier work; remark: listed apart in the source
σ1 receptors = biological target: T3, σ1 receptors (Rattus norvegicus, UniProt Q9R0C9); experiment: ED50 for pre-blocking of ^18F-FTC146 uptake in rat whole brain (PET); format: in vivo; conditions: radioligand ^18F-FTC146, AUC 20-120 min
T3 construct: from tissue; host or cells: brain of living male rats (PET imaging)
T3 sequence (Q9R0C9 whole entry): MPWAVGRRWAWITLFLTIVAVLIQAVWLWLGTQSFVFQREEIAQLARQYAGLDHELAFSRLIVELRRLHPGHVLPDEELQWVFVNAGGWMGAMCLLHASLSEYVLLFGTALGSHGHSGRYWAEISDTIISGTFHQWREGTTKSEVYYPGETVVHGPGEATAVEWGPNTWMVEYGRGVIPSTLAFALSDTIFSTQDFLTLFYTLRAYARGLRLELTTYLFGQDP
Protocol: For radioligand injection, a polyethylene catheter (PE 10) was inserted into the penile vein of a male rat and then secured with tissue adhesive and tape. For dynamic scanning, the rats were secured with tape in the scanner and kept under 1.5% isoflurane anesthesia via a nose cone. Body temperature was monitored with a rectal probe. All PET scans were performed on a microPET Focus 220 scanner (Siemens Medical Solutions) (7,8). Data were acquired in listmode and reconstructed with Fourier rebinning + 2D filtered backprojection. A transmission scan was acquired before radioligand injection for attenuation correction. Dynamic scanning began at the time of a one-minute intravenous bolus injection of the radioligand under study (55 ± 19 MBq; volume 0.2 to 1.0 mL). The injected mass dose was 3 ± 1 nmol/kg. Challenge agents were administered intravenously 10 minutes before the radioligand for pre-blocking studies or 10 minutes after the radioligand for displacement studies. Tomographic images were analyzed with pixel-wise modeling computer software (PMOD 2.6; PMOD Group). Regions-of-interest in the brain were delineated, and time-activity curves calculated as SUV versus time.
Pre-blocking and displacement experiments were performed to assess radioligand target engagement and radioligand selectivity in vivo. Normally 4 doses of 0.01 mg/kg, 0.05 mg/kg, 0.25 mg/kg, and 1.25 mg/kg were used for preblocking experiments, and only 2 doses of 0.25 mg/kg and 1.25 mg/kg were used for displacement experiments. […] […] […] […] Where data permitted, the dose-response curves were fitted with GraphPad Prism software (version 8.1.1; GraphPad) to estimate the ED50 values. A dummy value of 100 pmol per kg body weight was used for zero concentration of the challenge agent in the construction of these dose-response curves. Numerical data are expressed as mean ± S.D. for n>2, or as mean and range for n = 2.

GluN2B receptors [11] = biological target: T1, GluN2B receptors; design: method as in PMID 31924728; conditions: pre-blocking, radioligand ^11C-(S)-NR2B-SMe; cited from earlier work
guinea pig σ1 receptor = guinea pig σ1 receptor (Cavia porcellus, UniProt Q60492); experiment: PDSP σ1 receptor binding; conditions: 10 μM; read-out: inhibition of reference radioligand binding, guinea pig σ1 receptor
Chain of guinea pig σ1 receptor (Q60492 whole entry): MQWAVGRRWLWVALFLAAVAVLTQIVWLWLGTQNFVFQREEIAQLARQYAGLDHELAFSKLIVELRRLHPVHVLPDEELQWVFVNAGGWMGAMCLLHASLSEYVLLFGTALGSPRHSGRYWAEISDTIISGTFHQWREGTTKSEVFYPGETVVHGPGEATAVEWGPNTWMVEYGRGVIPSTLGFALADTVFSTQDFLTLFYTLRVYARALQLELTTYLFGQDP
Description: (§2) NR2B-Me was submitted to the PDSP for assessment of binding affinity against a wide range of other receptors and binding sites. A full listing of these receptors and binding sites is given in the Supplemental Results. Detailed assay protocols are available at the PDSP website (http://pdsp.cwru.edu).
(§3) Assessment of Binding Affinity against a Wide Range of Other Receptors and Binding Sites. NR2B-Me was submitted to the National Institute of Mental Health Psychoactive Drug Screening program (NIMH-PDSP) to assess binding affinity against a wide range of other receptors and binding sites (5-HT1A, 1B, 1D, 1E, 2A, 2A agonist, 2A antagonist, 2B, 2B agonist, 2B antagonist, 2C, 2C agonist, 2C antagonist, 3, 5A, 6, 7; α2; α2β2, α2β2, α3β2, α3β4, α4β2, α4β4, α7; α1A, 1A agonist, 1B, 1B agonist, 1B antagonist, 2A-2C; AMPA*; β1-3; BZPa1-3, a5, a6, rat brain site; Ca^2+-Channel; CB1-2, D1, 2, 2 agonist, 2 antagonist, 3-5; DAT; DOR; EP1-4; GABAA,B; GPR40,41,43; H1-4; HERG; IMIDAZOLINE 1; KA-R*; KOR, KORagonist, antagonist; M1, 1 agonist, 1 antagonist, 2, 3, 3 agonist, 3 antagonist, 4, 5, 5 agonist, 5 antagonist; MDR 1; mGluR1A,2,4,5,5-cloned,5-rat brain,6,8; MOR; Na^+-Channel; NET; NK1, 1 antagonist, 2, 2 antagonist, 3, 3 antagonist; NMDA; NMDA/MK801; NT-1; OXYTOCINagonist, antagonist; PAR1agonist, antagonist; PCP; PKCA, B, D, E, G; PTHR2, Purinergicagonist, antagonist; SET; σ1,2; V1, 1 agonist, 1 antagonist, 2, 2 agonist, 2 antagonist, 3, 3 agonist, 3 antagonist, VMAT1, 2).

hERG channel = hERG channel (Homo sapiens, UniProt Q12809); experiment: PDSP pharmacological screen, hERG channel; conditions: read-out: inhibition of reference radioligand binding, hERG channel
Chain of hERG channel (Q12809 whole entry): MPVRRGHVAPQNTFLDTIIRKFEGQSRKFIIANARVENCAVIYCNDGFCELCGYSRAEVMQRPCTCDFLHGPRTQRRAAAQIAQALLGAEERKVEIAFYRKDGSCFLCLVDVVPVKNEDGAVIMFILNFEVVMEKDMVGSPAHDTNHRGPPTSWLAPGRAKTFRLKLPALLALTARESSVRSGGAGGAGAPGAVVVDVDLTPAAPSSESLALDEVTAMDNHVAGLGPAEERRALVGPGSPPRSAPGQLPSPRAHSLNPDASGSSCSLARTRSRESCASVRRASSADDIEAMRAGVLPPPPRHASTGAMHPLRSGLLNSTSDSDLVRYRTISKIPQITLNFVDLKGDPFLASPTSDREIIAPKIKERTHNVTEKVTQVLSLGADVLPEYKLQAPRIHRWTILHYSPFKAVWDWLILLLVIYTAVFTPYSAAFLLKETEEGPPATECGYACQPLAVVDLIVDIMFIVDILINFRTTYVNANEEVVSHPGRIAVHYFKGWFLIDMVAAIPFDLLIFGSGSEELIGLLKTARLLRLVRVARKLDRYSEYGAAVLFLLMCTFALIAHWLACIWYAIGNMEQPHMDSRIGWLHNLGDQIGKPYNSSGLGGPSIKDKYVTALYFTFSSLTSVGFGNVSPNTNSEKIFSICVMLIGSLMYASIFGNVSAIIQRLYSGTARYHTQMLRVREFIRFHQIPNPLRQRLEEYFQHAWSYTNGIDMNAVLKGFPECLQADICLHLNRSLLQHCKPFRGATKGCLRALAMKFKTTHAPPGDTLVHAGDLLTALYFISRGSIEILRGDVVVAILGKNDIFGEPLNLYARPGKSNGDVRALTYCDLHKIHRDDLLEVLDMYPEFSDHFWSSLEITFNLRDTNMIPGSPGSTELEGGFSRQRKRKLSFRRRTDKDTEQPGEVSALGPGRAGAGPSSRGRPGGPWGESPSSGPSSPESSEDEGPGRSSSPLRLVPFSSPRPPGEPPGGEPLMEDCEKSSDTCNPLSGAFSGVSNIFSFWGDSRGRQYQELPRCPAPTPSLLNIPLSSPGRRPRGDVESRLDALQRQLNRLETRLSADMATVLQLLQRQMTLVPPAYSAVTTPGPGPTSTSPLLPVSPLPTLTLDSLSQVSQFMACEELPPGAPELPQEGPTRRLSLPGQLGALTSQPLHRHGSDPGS
Description: as §2
(§4) Assessment of Binding Affinity against a Wide Range of Other Receptors and Binding Sites. […]

calcium channel = experiment: PDSP pharmacological screen, calcium channel; format: binding; conditions: 10 μM
Description: as §2, §4

PC12 cell σ2 receptors = biological target: T4, PC12 cell σ2 receptors (Rattus norvegicus, UniProt Q5U3Y7); experiment: PDSP σ2 receptor binding; conditions: at 10 µM (Table 1 footnote: 10 µmol), PC12 cell σ2
T4 construct: endogenous in cells; host or cells: PC12 cells
T4 sequence (Q5U3Y7 1-176): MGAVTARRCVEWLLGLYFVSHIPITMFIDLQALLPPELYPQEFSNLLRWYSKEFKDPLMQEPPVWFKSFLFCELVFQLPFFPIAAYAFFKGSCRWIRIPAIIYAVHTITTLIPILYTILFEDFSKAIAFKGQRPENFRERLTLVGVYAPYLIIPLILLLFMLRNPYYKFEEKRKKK
Description: as §2, §3

[12] = test system: numerous binding sites and receptors; experiment: PDSP pharmacological screen, other receptors and binding sites; conditions: 10 μM; not greater than 10% for sites other than calcium channel, hERG, σ1, σ2
Description: as §2, §4

[13] = rat, ex vivo 30 min after intravenous injection

SMILES: COc1ccc2c(c1)CCN(CCCCc1ccc([11CH3])cc1)CC2O (racemic) [^11C-NR2B-Me]
radioactivity in brain regions at 90 min as % of peak values after pre-block (GluN2B receptors [1]): about 10%
pKa (apparent) [2]: 5.04 ± 0.01
stability in human brain homogenate [3]: 99.5%
stability in human plasma [3]: 100%
time stable in PBS (10 mM) [4]: at least 2.5 hours
radioligand remaining in solution (no adsorption to glass test tubes) ([4]; PBS 10 mM): 98.1 ± 0.5%
logD7.4 ([5]; 1-octanol / sodium phosphate buffer pH 7.4, room temperature): 3.27
conversion into radiometabolite in brain homogenate ([6]; rat brain homogenate): less than 0.5%
In vitro stability, plasma ([6]; rat plasma, 37 °C, 30 min): 70.3%
single less lipophilic radiometabolite detected in rat plasma in vitro ([6]; rat plasma, 37 °C, 30 min): about 30%
Ex vivo stability, brain (unchanged radioligand as % of radioactivity) ([7]; rat brain, 30 min after intravenous injection): 99.5% and > 99%
Ex vivo stability, plasma (unchanged radioligand as % of radioactivity) ([7]; rat plasma, 30 min after intravenous injection): 46.2%
Radioactivity conc., brain [7, 13]: 4.1 SUV
Radioactivity conc., plasma [7, 13]: 0.04 SUV
Radioactivity conc., whole blood [7, 13]: 0.300 SUV
Tissue to plasma radioactivity ratio, brain [7, 13]: 103
Tissue to plasma radioactivity ratio, plasma [7, 13]: 1.0
Tissue to plasma radioactivity ratio, whole blood [7, 13]: 7.5
human plasma free fraction (fp) [8]: 1.16% ± 0.14

ED50 in rat whole brain in vivo ^18F-FTC146 (σ1 receptors): 1064 nmol/kg
SMILES: CSc1ccc2c(c1)CCN(CCCCc1ccc(C)cc1)CC2O (racemic) [NR2B-SMe, (R,S)-7-thiomethoxy-3-(4-(4-methyl-phenyl)butyl)-2,3,4,5-tetrahydro-1H-benzo[d]azepin-1-ol]
σ2 inhibition (σ2 receptor): 90%
cLogD7.4 [9]: 3.41
Ki (GluN2B): 2.2 nM
pKa [10]: 5.03
ED50 in rat whole brain in vivo ^11C-(S)-NR2B-SMe (GluN2B receptors [11]): 9.5 nmol/kg

inhibition at 10 µM (guinea pig σ1 receptor): 89.7%
pKa ([2]; cyclohexane/sodium phosphate buffer, read-out: pKa (apparent)): 5.04
inhibition of reference radioligand binding, calcium channel (calcium channel): 39.6%
inhibition at 10 µM (PC12 cell σ2 receptors): 90.7%
σ2 inhibition (PC12 cell σ2 receptors; 10 µM): 91%
logD ([5]; 1-octanol/sodium phosphate buffer, pH 7.4, Table 1, text gives this value as measured logD7.4, read-out: cLogD7.4): 3.27
SMILES: COc1ccc2c(c1)CCN(CCCCc1ccc(C)cc1)CC2O (stereo not drawn) [NR2B-Me, 7-methoxy-3-(4-(p-tolyl)butyl)-2,3,4,5-tetrahydro-1H-benzo[d]azepin-1-ol]
inhibition at 10 µM (hERG channel): 61.7%
inhibition of reference radioligand binding, numerous other binding sites and receptors [12]: only weakly inhibited
